Measurements reported in patent US8357634B2, “N-alkoxycarboxamides and their use as microbiocides” (Syngenta Crop Protection LLC, priority 2009, dated 2013).

Tests used:
Puccinia recondita [1] = assay: Example B-6: Protective action against Puccinia recondita (brown rust) on wheat leaf segments; assay type: in vivo; settings: foliar, 192 h, 0.02% active ingredient, 8 days after inoculation, read-out: preventive fungicidal activity (inhibition)
Procedure: (§1) Protective Action Against Puccinia recondita (Brown Rust) on Wheat Wheat leaf segments were placed on agar in multiwell plates (24-well format) and sprayed with test solutions (0.02% active ingredient). After drying, the leaf disks were inoculated with a spore suspension of the fungus. After appropriate incubation the activity of a compound was assessed 8 days after inoculation as preventive fungicidal activity.

Septoria tritici = assay: Example B-3: Action against Septoria tritici, fungal growth assay; assay type: cell-based; settings: Zymoseptoria tritici; 0.002% active ingredient; PDB broth, 24° C., photometric after 72 hrs
Procedure: (§2) Action Against Septoria tritici—Fungal Growth Assay Conidia of the fungus from cryogenic storage were directly mixed into nutrient broth (PDB potato dextrose broth). After placing a (DMSO) solution of the test compounds (0.002% active ingredient) into a microtiter plate (96-well format) the nutrient broth containing the fungal spores was added. The test plates were incubated at 24° C. and the inhibition of growth was determined photometrically after 72 hrs. The activity of a compound was expressed as fungal growth inhibition (0=no growth inhibition, ratings of 80% to 99% mean good to very good inhibition, 100%=complete inhibition).

[2] = system: Erysiphe graminis f. sp. tritici; assay: Example B-5: Action against Erysiphe graminis f. sp. tritici (wheat powdery mildew), wheat leaf segments; assay type: in vivo; settings: Blumeria graminis, foliar, 168 h, 0.02% active ingredient, 7 days after inoculation, read-out: preventive fungicidal activity (inhibition)
Procedure: as §1, with “Action” for “Protective Action”, “Erysiphe graminis f. sp. tritici (Wheat Powdery Mildew)” for “Puccinia recondita (Brown Rust) on Wheat”, “7” for “8”

Pyrenophora teres = assay: Example B-8: Action against Pyrenophora teres (net blotch) on barley leaf segments; assay type: in vivo; settings: foliar, 96 h, 0.02% active ingredient, 4 days after inoculation, read-out: preventive fungicidal activity (inhibition)
Procedure: as §1, with “Action” for “Protective Action”, “Pyrenophora teres (Net Blotch)” for “Puccinia recondita (Brown Rust)”, “Barley Barley” for “Wheat Wheat”, “4” for “8”

[3] = system: Mycosphaerella arachidis (Cercospora arachidicola); assay: Example B-2: Action against Mycosphaerella arachidis, fungal growth assay; assay type: cell-based; settings: 0.002% active ingredient, PDB broth, 24° C., photometric after 6-7 days
Procedure: as §2, with “Mycosphaerella arachidis (Early Leaf Spot of Groundnut; Cercospora arachidicola [fanamorph])—Fungal” for “Septoria tritici—Fungal”, “measured” for “determined”, “6-7 days.” for “72 hrs.”

Puccinia recondita [4] = assay: Example B-7: Curative action against Puccinia recondita (brown rust) on wheat leaf segments; assay type: in vivo; settings: 0.02% active ingredient sprayed one day after inoculation, 8 days after inoculation; for inhibition at 0.02 % strength: Puccinia recondita, foliar, read-out: curative fungicidal activity (inhibition)
Procedure: Curative Action Against Puccinia recondita (Brown Rust) on Wheat Wheat leaf segments were placed on agar in multiwell plates (24-well format) and inoculated with a spore suspension of the fungus. One day after inoculation the leaf segments were sprayed with test solutions (0.02% active ingredient). After appropriate incubation the activity of a compound was assessed 8 days after inoculation as curative fungicidal activity.

Botrvtis cinerea = assay: Example B-1: Action against Botrytis cinerea, fungal growth assay; assay type: cell-based; settings: 0.002% active ingredient, PDB broth, 24° C., photometric after 3-4 days
Procedure: as §2, with “Action against Botrvtis cinerea—fungal growth assay” for “Action Against Septoria tritici—Fungal Growth Assay”, “storage was” for “storage were”, “was measured” for “was determined”, “after 3-4 days.” for “after 72 hrs.”

| melting point [°C] | Compound | inhibition at 0.02 % strength (Puccinia recondita [1]) [%] | inhibition at 0.002 % strength (Septoria tritici) [%] | inhibition at 0.02 % strength [2] [%] | inhibition at 0.02 % strength (Pyrenophora teres) [%] | inhibition at 0.002 % strength [3] [%] | inhibition at 0.02 % strength (Puccinia recondita [4]) [%] | inhibition at 0.002 % strength (Botrvtis cinerea) [%] | curative fungicidal activity (inhibition) (Puccinia recondita [4]) [%] |
| --- | --- | --- | --- | --- | --- | --- | --- | --- | --- |
| 72 to 74 | CON(C(=O)c1cn(C)nc1C(F)F)C(C)c1ccc(I)cc1 (centres unmarked) [Compound 1.003, 3-difluoromethyl-1-methyl-1H-pyrazole-4-carboxylic acid [1-(4-iodo-phenyl)-ethyl]-methoxy-amide] | ≥ 80 | ≥ 80 | ≥ 80 | ≥ 80 | ≥ 80 |  |  |  |
| 136 to 138 | CON(C(=O)c1cn(C)nc1C(F)F)C(C)c1cccc(I)c1 (centres unmarked) [Compound 1.014, 3-Difluoromethyl-1-methyl-1H-pyrazole-4-carboxylic acid [1-(3-iodo-phenyl)-ethyl]-methoxy-amide] | ≥ 80 | ≥ 80 | ≥ 80 | ≥ 80 | ≥ 80 | ≥ 80 | ≥ 80 |  |
| 162 to 164 | CON(C(=O)c1cn(C)nc1C(F)F)C(C)c1cccc(-c2ccc(Cl)c(Cl)c2)c1 (centres unmarked) [Compound 1.020, 3-difluoromethyl-1-methyl-1H-pyrazole-4-carboxylic acid [1-(3′,4′-dichloro-biphenyl-3-yl)-ethyl]-methoxy-amide] | ≥ 80 | ≥ 80 |  | ≥ 80 | ≥ 80 |  | ≥ 80 |  |
|  | CON(Cc1ccc(Cl)cc1Cl)C(=O)c1cn(C)nc1C(F)F [Compound 1.091, 3-difluoromethyl-1-methyl-1H-pyrazole-4-carboxylic acid (2,4-dichlorobenzyl)-methoxy-amide] | ≥ 80 | ≥ 80 |  | ≥ 80 | ≥ 80 | 50 |  |  |
|  | CON(C(=O)c1cn(C)nc1C(F)F)C(CF)c1ccc(Cl)cc1 (centres unmarked) [Compound 1.107] |  |  |  |  |  |  |  | 50 |
